# In patent US20240124503A1, “HETEROAROMATIC PHOSPHONIUM SALTS AND THEIR USE TREATING CANCER” (FLORATEK PHARMA S.A., priority 2021, published 2024):
# pIC50: −log10 of the molar value. Where two headings read alike, the source gives them in different places.
# Experiments:
# Type in all cases: cell-based
# BR-05-0014E = assay: Cell viability, breast PDX BR-05-0014E
# Protocol: (§1) PDX-derived cell cultures were obtained from tumors explanted from mice and isolated by mechanical and enzymatic dissociation. […] Cells were harvested and seeded in 96-wells plates at a density of 1.25 to 5×10^3 cells/well for cytotoxicity assays. Cells were incubated 48 h at 37° C. prior to addition of test molecules and vehicle (DMSO, 0.1%) at desired final concentrations. Cell viability was assessed before drugs' addition (To) and 5 days after test molecules addition by measuring ATP cell content using CellTiter-Glo® Luminescent Cell Viability Assay (Promega) according to the manufacturer's instructions. Luciferase activity was measured on a luminometer (PerkinElmer® EnVision™). Each concentration of compounds was tested in triplicate.
# (§2) Viability was calculated as a percentage of ATP value compared to vehicle treated controls.
# (§3) For PDX primary cell cultures, the tumour tissue was washed with PBS containing antibiotic-antimycotic and non-tumour tissue and necrotic tumour tissues were separated. The tumour tissue was transferred to a new dish and cut into 1˜2 mm^3 fragments, resuspended in RPMI-1640 medium and centrifuged at 1,200 rpm for 6 min at room temperature. The pelleted material was resuspended with 15 mL of Tumour Cell Digestion Solution and incubated at 37° C. for 1 hour with agitation. […]
# LU-01-0004 = assay: Cell viability, lung PDX LU-01-0004
# Protocol: as §1, §2, §3
# KI-12-0062 = assay: Cell viability, kidney PDX KI-12-0062
# Protocol: as §1, §2
# (§4) For PDX primary cell cultures, the tumour tissue was washed with PBS containing antibiotic-antimycotic and non-tumour tissue and necrotic tumour tissues were separated. The tumour tissue was transferred to a new dish and cut into 1˜2 mm^3 fragments, resuspended in RPMI-1640 medium and centrifuged at 1,200 rpm for 6 min at room temperature. The pelleted material was resuspended with 15 mL of Tumour Cell Digestion Solution and incubated at 37° C. for 1 hour with agitation. Following further addition of media, centrifugation and passage through a 70 μm cell strainer, the homogenous cell mixture was layered onto 15 mL of Ficoll-Paque PLUS in a 50 mL conical tube and centrifuged for 15 min at 1,600 rpm. The interface cells were collected, washed with media, separated by centrifugation at 1,200 rpm. The cell pellet was resuspended in serum free media supplemented with growth factors. 10,000 cells/wells were plated in a 96 well plate and incubated at 37° C., 5% CO2, 95% air and 100% relative humidity overnight. The cytotoxicity assay was conducted as above.
# (§5) Sigmoidal concentration-response curves were fitted to the data points (test-versus-control, T/C values) obtained for each tumor model using GraphPad prism 5.02 software.
# CO-04-0700 = assay: Cell viability, colon PDX CO-04-0700
# Protocol: as §1, §2, §3
# LoVo = assay: Cell viability assay, LoVo; details: colon carcinoma cell line LoVo
# Protocol: (§6) Antitumor activity of the compounds and doxorubicin as a positive control was assessed by using the CellTiter-Blue Cell Viability Assay (Promega, #G8082) or CellTiter-Glow® Luminescent Cell Viability assay (Promega #G7572) according to the manufacturer's instructions. The compounds were tested at 5 or 6 concentrations in half-log increments (highest concentration 30 μM or 100 μM) in duplicate or triplicate well conditions.
# (§7) Tumor cells were grown at 37° C. in a humidified atmosphere with 5% CO2 in RPMI 1640 or DMEM medium, supplemented with 10% (v/v) fetal calf serum and 50 μg/ml gentamicin for up to 20 passages, and were passaged once or twice weekly. Cells were harvested using TrypLE or PBS buffer containing 1 mM EDTA, and the percentage of viable cells was determined using a CASY Model TI cell counter (OMNI Life Science). Cells were harvested from exponential phase cultures, counted and plated in 96 well flat-bottom microtiter plates at a cell density depending on the cell line's growth rate (4,000-20,000 cells/well depending on the cell line's growth rate, up to 60,000 for hematological cancer cell lines) in RPMI 1640 or DMEM medium supplemented with 10% (v/v) fetal calf serum and 50 μg/ml gentamicin (140 μl/well). […] Viability of cells was quantified by the CellTiter-Blue® cell viability assay (Promega G8081) or CellTiter-Glow® Luminescent Cell Viability assay (Promega #G7572). […]
# ME-21-0028 = assay: Cell viability, skin melanoma PDX ME-21-0028
# Protocol: as §1, §2, §4, §5
# ST-02-0007 = assay: Cell viability, stomach PDX ST-02-0007
# Protocol: as §1, §2, §3
# MDA-MB-468 = assay: Cell viability assay, MDA-MB-468; details: breast carcinoma cell line MDA-MB-468
# Protocol: as §6, §7
# CO-04-0722 = assay: Cell viability, colon PDX CO-04-0722
# Protocol: as §1, §2, §3
# PC-3 = assay: Cell viability assay, PC-3; details: prostate carcinoma cell line PC-3
# Protocol: as §6, §7
# LU-01-0025 = assay: Cell viability, lung PDX LU-01-0025
# Protocol: as §1, §2, §3
# LY-24-0340 = assay: Cell viability, lymphoma PDX LY-24-0340
# Protocol: as §1, §2, §4, §5
# LU-01-0010 = assay: Cell viability, lung PDX LU-01-0010
# Protocol: as §1, §2, §3
# HN-13-0020 = assay: Cell viability, head and neck PDX HN-13-0020
# Protocol: as §1, §2, §4, §5
# OVXF 899 = assay: Cell viability assay, OVXF 899; details: ovarian carcinoma OVXF 899
# Protocol: as §6, §7
# ONCap = assay: Cell viability assay, ONCap; details: prostate carcinoma cell line ONCap
# Protocol: as §6, §7
# HT-29 = assay: Cell viability assay, HT-29; details: colon carcinoma cell line HT-29
# Protocol: as §6, §7
# SF-268 = assay: Cell viability assay, SF-268; details: brain carcinoma cell line SF-268
# Protocol: as §6, §7
# BR-05-0399 = assay: Cell viability, breast PDX BR-05-0399
# Protocol: as §1, §2, §3
# [1] = kidney PDX KI-12-0062, read-out: IC50
# [2] = skin melanoma PDX ME-21-0028, read-out: IC50
# [3] = lymphoma PDX LY-24-0340, read-out: IC50
# [4] = head and neck PDX HN-13-0020, read-out: IC50
SMILES,pIC50 (BR-05-0014E),pIC50 (LU-01-0004),pIC50 (KI-12-0062; [1]),pIC50 (CO-04-0700),pIC50 (ME-21-0028; [2]),pIC50 (ST-02-0007),pIC50 (CO-04-0722),pIC50 (LU-01-0025),pIC50 (LY-24-0340; [3]),pIC50 (LU-01-0010),pIC50 (HN-13-0020; [4]),pIC50 (OVXF 899),pIC50 (ONCap),pIC50 (BR-05-0399),also measured
"COc1c(O)ccc2c(=O)c(O)c(-c3ccc(CCCC[P+](c4ccccc4)(c4ccccc4)c4ccccc4)cc3)oc12 [SND190, (4-(4-(3,7-Dihydroxy-8-methoxy-4-oxo-4H1-chromen-2-yl)phenyl)butyl)triphenylphosphonium bromide]",5.18,5.27,4.82,5.62,5.66,5.24,5.36,6.22,5.42,5.96,5.65,5.06,5.82,5.27,"pIC50 (KI-12-0062; text summary of Table 11 (kidney PDX), read-out: IC50, kidney PDX growth): > 4.70; pIC50 (LoVo; Homo sapiens): 5.60; pIC50 (ME-21-0028; text summary of Table 21, read-out: IC50, skin melanoma PDX growth): > 4.70; pIC50 (MDA-MB-468; Homo sapiens): 6.52; pIC50 (PC-3; Homo sapiens): 5.77; pIC50 (LY-24-0340; Table 16, read-out: IC50, lymphoma PDX growth): > 5.30; pIC50 (HN-13-0020; summary of Table 10, read-out: IC50, head and neck PDX growth): > 5.30; pIC50 (HT-29; Homo sapiens): 5.24; pIC50 (SF-268; Homo sapiens): 5.39"
"O=c1cc(-c2ccc(CCC[P+](c3ccccc3)(c3ccccc3)c3ccccc3)cc2)oc2c(O)c(O)ccc12 [SND200, (3-(4-(7,8-Dihydroxy-4-oxo-4H1-chromen-2-yl)phenyl)propyl)triphenylphosphonium bromide]",4.72,5.01,4.84,5.12,4.96,5.03,5.01,5.31,5.40,5.00,5.39,5.20,6.28,4.83,pIC50 (LoVo): 6.19; pIC50 (MDA-MB-468): 6.52; pIC50 (PC-3): 6.52; pIC50 (HT-29): 5.48; pIC50 (SF-268): 5.11
